According to patent EP0942906B1, “COMPOUNDS USEFUL FOR INHIBITION OF FARNESYL PROTEIN TRANSFERASE” (SCHERING CORPORATION, priority 1996, dated 1998):
Like-named read-outs stand apart in the source and are kept apart here.

Tests used:
Settings in all cases: range stated for the listed group of compounds
COS Cell = COS Cell IC50 (Cell-Based Assay, procedure of WO 95/10516)
Protocol: (§1) FPT IC50 (inhibition of farnesyl protein transferase, in vitro enzyme assay) and COS Cell IC50 (Cell-Based Assay) were determined following the assay procedures described in WO 95/10516, published April 20, 1995. GGPT IC50 (inhibition of geranylgeranyl protein transferase, in vitro enzyme assay), Cell Mat Assay, and anti-tumor activity (in vivo anti-tumor studies) could be determined by the assay procedures described in WO 95/10516.

[1] = target: farnesyl protein transferase (Homo sapiens, UniProt P49354+P49356); assay: FPT IC50, inhibition of farnesyl protein transferase, in vitro enzyme assay (procedure of WO 95/10516); format: biochemical
Protocol: as §1

Human tumor cells = assay: Soft Agar Assay (anchorage-independent growth, colony count after MTT staining); format: cell-based
Protocol: Anchorage-independent growth is a characteristic of tumorigenic cell lines. Human tumor cells are suspended in growth medium containing 0.3% agarose and an indicated concentration of a farnesyl transferase inhibitor. The solution is overlayed onto growth medium solidified with 0.6% agarose containing the same concentration of farnesyl transferase inhibitor as the top layer. After the top layer is solidified, plates are incubated for 10-16 days at 37°C under 5% CO2 to allow colony outgrowth. After incubation, the colonies are stained by overlaying the agar with a solution of MTT (3-[4,5-dimethylthiazol-2-yl]-2.5-diphenyltetrazolium bromide, Thiazolyl blue) (1 mg/mL in PBS). Colonies can be counted and the IC50's can be determined.

[2] = ras form not stated, read-out: FPT IC50
[3] = H-ras, read-out: FPT IC50 (H-ras)
[4] = k-ras, read-out: FPT IC50 (k-ras)

Sequence of farnesyl protein transferase (P49356 whole entry, one chain of several): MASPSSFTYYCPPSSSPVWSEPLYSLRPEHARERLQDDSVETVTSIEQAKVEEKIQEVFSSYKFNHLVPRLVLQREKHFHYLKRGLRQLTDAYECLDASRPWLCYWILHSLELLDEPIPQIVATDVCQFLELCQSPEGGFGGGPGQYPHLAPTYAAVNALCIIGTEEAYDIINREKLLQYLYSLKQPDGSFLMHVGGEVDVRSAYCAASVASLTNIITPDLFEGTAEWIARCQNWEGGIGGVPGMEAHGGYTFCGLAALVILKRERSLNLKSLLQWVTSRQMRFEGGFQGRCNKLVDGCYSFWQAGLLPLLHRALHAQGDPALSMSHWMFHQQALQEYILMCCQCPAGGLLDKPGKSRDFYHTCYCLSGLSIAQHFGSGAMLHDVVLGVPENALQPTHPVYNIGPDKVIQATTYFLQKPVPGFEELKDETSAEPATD

IC50 [1, 2] [nM]	IC50 (Human tumor cells) [nM]	IC50 [1, 4] [nM]	SMILES	IC50 (COS Cell; read-out: Cos Cell) [nM]	IC50 (COS Cell; read-out: Cos Cell IC50) [nM]	IC50 [1, 3] [nM]
	≥ 19.5	14.5 to 71.2	CN(C)CC(=O)N1CCC(CC(=O)N2CCC(C3c4ncc(Br)cc4CCc4cc(Cl)cc(Br)c43)CC2)CC1 (single isomer, unassigned; (+)) [Compound 12.1]		10 to 700	2 to 31.7
		14.5 to 71.2	N[C@@H](Cc1ccccc1)C(=O)N1CCC(CC(=O)N2CCC([C@H]3c4ncc(Br)cc4CCc4cc(Cl)cc(Br)c43)CC2)CC1 [Compound 8.0]		10 to 700	2 to 31.7
		14.5 to 71.2	CC(C)(C)OC(=O)N1CCC[C@H]1C(=O)N1CCC(CC(=O)N2CCC([C@H]3c4ncc(Br)cc4CCc4cc(Cl)cc(Br)c43)CC2)CC1 [Compound 7.0]		10 to 700	2 to 31.7
		14.5 to 71.2	CC(C)(C)OC(=O)N[C@@H](Cc1c[nH]cn1)C(=O)N1CCC(CC(=O)N2CCC([C@H]3c4ncc(Br)cc4CCc4cc(Cl)cc(Br)c43)CC2)CC1 [Compound 6.0]	≥ 9	10 to 700	2 to 31.7
	≥ 19.5		NCC(=O)N1CCC(CC(=O)N2CCC([C@H]3c4ncc(Br)cc4CCc4cc(Cl)cc(Br)c43)CC2)CC1 [Compound 16.0]	≥ 9		

The next lines start with the compound.

SMILES	IC50 [1, 2] [nM]	IC50 (Human tumor cells) [nM]	IC50 [1, 4] [nM]	IC50 (COS Cell; read-out: Cos Cell) [nM]	IC50 (COS Cell; read-out: Cos Cell IC50) [nM]	IC50 [1, 3] [nM]
COC(=O)Cc1cn(CC(=O)N2CCC(CC(=O)N3CCC([C@H]4c5ncc(Br)cc5CCc5cc(Cl)cc(Br)c54)CC3)CC2)cn1 [Compound 56.0-B]	0.7 to 18	≥ 19.5		≥ 9		
CC(C)(C)OC(=O)NCCC(=O)N1CCC(CC(=O)N2CCC([C@H]3c4ncc(Br)cc4CCc4cc(Cl)cc(Br)c43)CC2)CC1 [Compound 86.0-B]	0.7 to 18					
CCOC(=O)CC(=O)N1CCC(CC(=O)N2CCC([C@H]3c4ncc(Br)cc4CCc4cc(Cl)cc(Br)c43)CC2)CC1 [Compound 8.0-B]	0.7 to 18					
O=C(O)CC(=O)N1CCC(CC(=O)N2CCC([C@H]3c4ncc(Br)cc4CCc4cc(Cl)cc(Br)c43)CC2)CC1 [Compound 14.0-B]	0.7 to 18	≥ 19.5		≥ 9		
O=C(CC1CCN(C(=O)Cn2cccc2)CC1)N1CCC([C@H]2c3ncc(Br)cc3CCc3cc(Cl)cc(Br)c32)CC1 [Compound 34.0-B]	0.7 to 18	≥ 19.5		≥ 9		
N#CCC(=O)N1CCC(CC(=O)N2CCC([C@H]3c4ncc(Br)cc4CCc4cc(Cl)cc(Br)c43)CC2)CC1 [Compound 44.0-B]	0.7 to 18	≥ 19.5		≥ 9		
O=C(OCc1ccccc1)c1cccn1CC(=O)N1CCC(CC(=O)N2CCC([C@H]3c4ncc(Br)cc4CCc4cc(Cl)cc(Br)c43)CC2)CC1 [Compound 55.0-B]	0.7 to 18	≥ 19.5		≥ 9		
O=C(CC1CCN(C(=O)Cn2cnc3ccccc32)CC1)N1CCC([C@H]2c3ncc(Br)cc3CCc3cc(Cl)cc(Br)c32)CC1 [Compound 12.0-B]	0.7 to 18	≥ 19.5	14.5 to 71.2	≥ 9		
O=C(CC1CCOCC1)N1CCC(CC(=O)N2CCC([C@H]3c4ncc(Br)cc4CCc4cc(Cl)cc(Br)c43)CC2)CC1 [Compound 85.0-B]	0.7 to 18	≥ 19.5		≥ 9		
N[C@@H](Cc1c[nH]cn1)C(=O)N1CCC(CC(=O)N2CCC([C@H]3c4ncc(Br)cc4CCc4cc(Cl)cc(Br)c43)CC2)CC1 [Compound 9.0]			14.5 to 71.2			2 to 31.7
NC(=O)CC(=O)N1CCC(CC(=O)N2CCC([C@H]3c4ncc(Br)cc4CCc4cc(Cl)cc(Br)c43)CC2)CC1 [Compound 50.0-B]	0.7 to 18	≥ 19.5		≥ 9		
O=C(O)CCC(=O)N1CCC(CC(=O)N2CCC([C@H]3c4ncc(Br)cc4CCc4cc(Cl)cc(Br)c43)CC2)CC1 [Compound 18.0-B]	0.7 to 18	≥ 19.5	14.5 to 71.2	≥ 9		2 to 31.7
NCCCC(=O)N1CCC(CC(=O)N2CCC([C@H]3c4ncc(Br)cc4CCc4cc(Cl)cc(Br)c43)CC2)CC1 [Compound 90.0-B]	0.7 to 18					
O=C(O)CCCCCC(=O)N1CCC(CC(=O)N2CCC([C@H]3c4ncc(Br)cc4CCc4cc(Cl)cc(Br)c43)CC2)CC1 [Compound 70.0-B]	0.7 to 18	≥ 19.5		≥ 9		
CC(C)(C)OC(=O)N1C[C@H](O)C[C@H]1C(=O)N1CCC(CC(=O)N2CCC([C@H]3c4ncc(Br)cc4CCc4cc(Cl)cc(Br)c43)CC2)CC1 [Compound 24.0-B]	0.7 to 18	≥ 19.5		≥ 9		
O=C(O)CCCC(=O)N1CCC(CC(=O)N2CCC([C@H]3c4ncc(Br)cc4CCc4cc(Cl)cc(Br)c43)CC2)CC1 [Compound 19.0-B]	0.7 to 18	≥ 19.5		≥ 9		
COC(NC(=O)CC(=O)N1CCC(CC(=O)N2CCC([C@H]3c4ncc(Br)cc4CCc4cc(Cl)cc(Br)c43)CC2)CC1)C(C)C (some centres unmarked) [Compound 51.0-B]	0.7 to 18			≥ 9		
O=C(CC1CCN(C(=O)CN2CCS(=O)(=O)CC2)CC1)N1CCC([C@H]2c3ncc(Br)cc3CCc3cc(Cl)cc(Br)c32)CC1 [Compound 6.0-B]	0.7 to 18	≥ 19.5	14.5 to 71.2	≥ 9		
CS(=O)(=O)NCC(=O)N1CCC(CC(=O)N2CCC([C@H]3c4ncc(Br)cc4CCc4cc(Cl)cc(Br)c43)CC2)CC1 [Compound 11.0]					10 to 700	2 to 31.7

SMILES	IC50 [1, 2] [nM]	IC50 (Human tumor cells) [nM]	IC50 [1, 4] [nM]	IC50 (COS Cell; read-out: Cos Cell) [nM]	IC50 (COS Cell; read-out: Cos Cell IC50) [nM]	IC50 [1, 3] [nM]
COC(=O)c1cccn1CC(=O)N1CCC(CC(=O)N2CCC([C@H]3c4ncc(Br)cc4CCc4cc(Cl)cc(Br)c43)CC2)CC1 [Compound 35.0-B]	0.7 to 18	≥ 19.5		≥ 9		
O=C(C(=O)N1CCC(CC(=O)N2CCC([C@H]3c4ncc(Br)cc4CCc4cc(Cl)cc(Br)c43)CC2)CC1)c1cccs1 [Compound 81.0-B]	0.7 to 18	≥ 19.5		≥ 9		
CONC(=O)C(=O)N1CCC(CC(=O)N2CCC([C@H]3c4ncc(Br)cc4CCc4cc(Cl)cc(Br)c43)CC2)CC1 [Compound 49.0-B]	0.7 to 18	≥ 19.5		≥ 9		
COC(=O)CCCC(=O)N1CCC(CC(=O)N2CCC(C3c4ncc(Br)cc4CCc4cc(Cl)cc(Br)c43)CC2)CC1 (centres unmarked) [Compound 15.1]					10 to 700	2 to 31.7
O=C(NCC(=O)N1CCC(CC(=O)N2CCC([C@H]3c4ncc(Br)cc4CCc4cc(Cl)cc(Br)c43)CC2)CC1)c1ccccc1 [Compound 12.0]					10 to 700	2 to 31.7
O=C(CCN1CCCCC1)N1CCC(CC(=O)N2CCC([C@H]3c4ncc(Br)cc4CCc4cc(Cl)cc(Br)c43)CC2)CC1 [Compound 7.0-B]	0.7 to 18		14.5 to 71.2	≥ 9		
CN(C)CCCC(=O)N1CCC(CC(=O)N2CCC([C@H]3c4ncc(Br)cc4CCc4cc(Cl)cc(Br)c43)CC2)CC1 [Compound 12.2]						2 to 31.7
O=C(CC1CCN(C(=O)CN2CCOCC2)CC1)N1CCC([C@H]2c3ncc(Br)cc3CCc3cc(Cl)cc(Br)c32)CC1 [Compound 13.0]					10 to 700	2 to 31.7
O=C(CCN1CCCCC1)N1CCC(CC(=O)N2CCC(C3c4ncc(Br)cc4CCc4cc(Cl)cc(Br)c43)CC2)CC1 (single isomer, unassigned; (+)) [Compound 14.2]					10 to 700	2 to 31.7
O=C(CC1CCN(C(=O)CC2CCCCO2)CC1)N1CCC([C@H]2c3ncc(Br)cc3CCc3cc(Cl)cc(Br)c32)CC1 (some centres unmarked) [Compound 114.3-B]	0.7 to 18			≥ 9		
C[C@@H](NC(=O)OC(C)(C)C)C(=O)N1CCC(CC(=O)N2CCC([C@H]3c4ncc(Br)cc4CCc4cc(Cl)cc(Br)c43)CC2)CC1 [Compound 4.0]			14.5 to 71.2			2 to 31.7
C[C@H](NC(=O)OC(C)(C)C)C(=O)N1CCC(CC(=O)N2CCC([C@H]3c4ncc(Br)cc4CCc4cc(Cl)cc(Br)c43)CC2)CC1 [Compound 3.0]			14.5 to 71.2			2 to 31.7
CCOC(CC(=O)N1CCC(CC(=O)N2CCC([C@H]3c4ncc(Br)cc4CCc4cc(Cl)cc(Br)c43)CC2)CC1)OCC [Compound 76.0-B]	0.7 to 18					
CCOC(=O)CC(=O)N1CCC(CC(=O)N2CCC(C3c4ncc(Br)cc4CCc4cc(Cl)cc(Br)c43)CC2)CC1 (centres unmarked) [Compound 15.3]					10 to 700	2 to 31.7
O=C(CC1CCN(C(=O)Cn2cnc(-c3ccccc3)c2)CC1)N1CCC([C@H]2c3ncc(Br)cc3CCc3cc(Cl)cc(Br)c32)CC1 [Compound 20.0-B]	0.7 to 18					
CC(C)(C)OC(=O)N[C@@H](Cc1ccccc1)C(=O)N1CCC(CC(=O)N2CCC([C@H]3c4ncc(Br)cc4CCc4cc(Cl)cc(Br)c43)CC2)CC1 [Compound 5.0]						2 to 31.7
CC(C)(C)OC(=O)NCC(=O)N1CCC(CC(=O)N2CCC([C@H]3c4ncc(Br)cc4CCc4cc(Cl)cc(Br)c43)CC2)CC1 [Compound 2.0]			14.5 to 71.2			2 to 31.7
O=C(CC1CCN(C(=O)CN2CCS(=O)(=O)CC2)CC1)N1CCC(C2c3ncc(Br)cc3CCc3cc(Cl)cc(Br)c32)CC1 (single isomer, unassigned; (+)) [Compound 14.1]					10 to 700	2 to 31.7
